Data from US10358434B2, “2-(3-pyridinyl)-1H-benzimidazole derivative compound and medicament containing same” (NIHON MEDI-PHYSICS CO., LTD., priority 2014, dated 2019).

Experiments:
[1] = Plasma stability evaluation (TLC analysis); assay type: in vitro ADME; settings: 37° C., 60 minutes, TLC analysis
How it was run: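 TLC analysis, using each compound's synthesis conditions, judged stability after methanol was added and samples were centrifuged to remove protein. Beforehand, each tracer had spent 60 minutes at 37° C in pooled heparinized normal human plasma.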

[2] = In vivo kinetics experiment (radioactivity distribution); design: species or system Wistar male rat; settings: rat i.v., mean ± SD
How it was run: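 Tissue radioactivity (% ID/g) and adrenal-to-blood, liver, kidney, small intestine, muscle and fat ratios determined at 10, 30 and 60 min post-dose. Tracers (approximately 1 to 3.7 MBq, saline with 1 w/v % ascorbic acid) injected i.v. into caudal vein of anesthetized 9-week male Wistar rats; organs excised, weighed, counted.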

[3] = tested on: human adrenal gland section expressing aldosterone-producing adenoma; assay: In vitro autoradiography using human adrenal adenoma; assay type: binding; settings: section of FIG. 17(b)
How it was run: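 Autoradiography readout: PSL in equal-sized ROIs over adenoma (B2) and normal adrenal cortex (B1), expressed as B2/B1 and decay-corrected using half-life, applied activity and plate contact time. Tissue was surgically excised human adrenal, frozen and cut at 7 μm, incubated 10 min with 5-33 kBq/mL tracer in BSA-containing PBS, then imaged after 16-20 h exposure.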

With `FCCn1c(-c2cncc(Cn3cncc3[123I])c2)nc2cc(F)c(Cl)cc21` [[^123I] 610, 6-Chloro-5-fluoro-1-(2-fluoroethyl)-2-{5-(5-[^123I]iodo-1H-imidazol-1-ylmethyl)pyridin-3-yl}benzimidazole] the “Radiochemical purity after incubation in human plasma” value [1] was 92%, the “Adrenal gland/blood ratio of radioactivity accumulation” value (“Adrenal gland/blood ratio” below) ([2]; 10 min after administration) was 27.61 ± 6.22 and the “Adrenal gland/fat ratio of radioactivity accumulation” value (“Adrenal gland/fat ratio” for short) ([2]; 10 min after administration) was 100.35 ± 29.67. For the same compound, the “Adrenal gland/kidney ratio of radioactivity accumulation” value (“Adrenal gland/kidney ratio” below) ([2]; 10 min after administration) was 14.48 ± 2.49, the “Adrenal gland/liver ratio of radioactivity accumulation” value (from here on “Adrenal gland/liver ratio”) ([2]; 10 min after administration) was 3.68 ± 0.80 and the “Adrenal gland/muscle ratio of radioactivity accumulation” value (from here on “Adrenal gland/muscle ratio”) ([2]; 10 min after administration) was 62.69 ± 29.38. For the same compound, the “Adrenal gland/small intestine ratio of radioactivity accumulation” value (shortened to “Adrenal gland/small intestine ratio”) ([2]; 10 min after administration) was 18.10 ± 4.67, the “Radioactivity distribution Adrenal gland” value ([2]; 10 min after administration) was 12.62 ± 2.99 % ID/g and the “Radioactivity distribution Bladder (including urine)” value (“Radioactivity distribution Bladder” for short) ([2]; 10 min after administration) was 0.22 ± 0.08 % ID/g. The “Radioactivity distribution Blood” value ([2]; 10 min after administration) was 0.46 ± 0.03 % ID/g, the “Radioactivity distribution Fat” value ([2]; 10 min after administration) was 0.13 ± 0.02 % ID/g and the “Radioactivity distribution Femur” value ([2]; 10 min after administration) was 3.25 ± 0.85 % ID/g. The “Radioactivity distribution Heart” value ([2]; 10 min after administration) was 0.33 ± 0.02 % ID/g, the “Radioactivity distribution Kidney” value ([2]; 10 min after administration) was 0.86 ± 0.06 % ID/g and the “Radioactivity distribution Large intestine” value ([2]; 10 min after administration) was 0.13 ± 0.02 % ID/g. The “Radioactivity distribution Liver” value ([2]; 10 min after administration) was 3.43 ± 0.26 % ID/g, the “Radioactivity distribution Lung” value ([2]; 10 min after administration) was 0.49 ± 0.03 % ID/g and the “Radioactivity distribution Muscle (lower limbs)” value ([2]; 10 min after administration) was 0.21 ± 0.05 % ID/g. For the same compound, the “Radioactivity distribution Remaining whole body” value ([2]; 10 min after administration) was 0.30 ± 0.04 % ID/g, the “Radioactivity distribution Small intestine” value ([2]; 10 min after administration) was 0.71 ± 0.10 % ID/g and the “Radioactivity distribution Spleen” value ([2]; 10 min after administration) was 1.43 ± 0.11 % ID/g. For the same compound, the “Radioactivity distribution Stomach” value ([2]; 10 min after administration) was 0.66 ± 0.21 % ID/g, the “Radioactivity distribution Testis” value ([2]; 10 min after administration) was 0.13 ± 0.02 % ID/g and the “Radioactivity distribution Whole brain” value ([2]; 10 min after administration) was 0.04 ± 0.00 % ID/g. The “Adrenal gland/blood ratio” value ([2]; 30 min after administration) was 23.78 ± 2.07, the “Adrenal gland/fat ratio” value ([2]; 30 min after administration) was 88.69 ± 3.10 and the “Adrenal gland/kidney ratio” value ([2]; 30 min after administration) was 28.65 ± 3.77. For the same compound, the “Adrenal gland/liver ratio” value ([2]; 30 min after administration) was 6.43 ± 0.94, the “Adrenal gland/muscle ratio” value ([2]; 30 min after administration) was 94.79 ± 8.71 and the “Adrenal gland/small intestine ratio” value ([2]; 30 min after administration) was 16.12 ± 2.61. The “Radioactivity distribution Adrenal gland” value ([2]; 30 min after administration) was 15.71 ± 1.59 % ID/g, the “Radioactivity distribution Bladder” value ([2]; 30 min after administration) was 0.28 ± 0.08 % ID/g and the “Radioactivity distribution Blood” value ([2]; 30 min after administration) was 0.66 ± 0.04 % ID/g. The “Radioactivity distribution Fat” value ([2]; 30 min after administration) was 0.18 ± 0.01 % ID/g, the “Radioactivity distribution Femur” value ([2]; 30 min after administration) was 19.34 ± 6.00 % ID/g and the “Radioactivity distribution Heart” value ([2]; 30 min after administration) was 0.31 ± 0.02 % ID/g. For the same compound, the “Radioactivity distribution Kidney” value ([2]; 30 min after administration) was 0.55 ± 0.02 % ID/g, the “Radioactivity distribution Large intestine” value ([2]; 30 min after administration) was 0.16 ± 0.03 % ID/g and the “Radioactivity distribution Liver” value ([2]; 30 min after administration) was 2.46 ± 0.18 % ID/g. For the same compound, the “Radioactivity distribution Lung” value ([2]; 30 min after administration) was 0.53 ± 0.02 % ID/g, the “Radioactivity distribution Muscle (lower limbs)” value ([2]; 30 min after administration) was 0.17 ± 0.02 % ID/g and the “Radioactivity distribution Remaining whole body” value ([2]; 30 min after administration) was 0.31 ± 0.02 % ID/g. For the same compound, the “Radioactivity distribution Small intestine” value ([2]; 30 min after administration) was 0.98 ± 0.06 % ID/g, the “Radioactivity distribution Spleen” value ([2]; 30 min after administration) was 1.00 ± 0.04 % ID/g and the “Radioactivity distribution Stomach” value ([2]; 30 min after administration) was 1.27 ± 0.33 % ID/g. For the same compound, the “Radioactivity distribution Testis” value ([2]; 30 min after administration) was 0.25 ± 0.02 % ID/g, the “Radioactivity distribution Whole brain” value ([2]; 30 min after administration) was 0.04 ± 0.00 % ID/g and the “Adrenal gland/blood ratio” value ([2]; 60 min after administration) was 27.80 ± 8.18. For the same compound, the “Adrenal gland/fat ratio” value ([2]; 60 min after administration) was 120.42 ± 43.06, the “Adrenal gland/kidney ratio” value ([2]; 60 min after administration) was 40.68 ± 13.23 and the “Adrenal gland/liver ratio” value ([2]; 60 min after administration) was 20.57 ± 8.91. For the same compound, the “Adrenal gland/muscle ratio” value ([2]; 60 min after administration) was 147.93 ± 55.03, the “Adrenal gland/small intestine ratio” value ([2]; 60 min after administration) was 15.84 ± 3.51 and the “Radioactivity distribution Adrenal gland” value ([2]; 60 min after administration) was 19.09 ± 6.65 % ID/g. For the same compound, the “Radioactivity distribution Bladder” value ([2]; 60 min after administration) was 0.29 ± 0.08 % ID/g, the “Radioactivity distribution Blood” value ([2]; 60 min after administration) was 0.68 ± 0.05 % ID/g and the “Radioactivity distribution Fat” value ([2]; 60 min after administration) was 0.16 ± 0.03 % ID/g. For the same compound, the “Radioactivity distribution Femur” value ([2]; 60 min after administration) was 44.38 ± 12.58 % ID/g, the “Radioactivity distribution Heart” value ([2]; 60 min after administration) was 0.28 ± 0.04 % ID/g and the “Radioactivity distribution Kidney” value ([2]; 60 min after administration) was 0.47 ± 0.02 % ID/g. The “Radioactivity distribution Large intestine” value ([2]; 60 min after administration) was 0.19 ± 0.02 % ID/g, the “Radioactivity distribution Liver” value ([2]; 60 min after administration) was 0.95 ± 0.10 % ID/g and the “Radioactivity distribution Lung” value ([2]; 60 min after administration) was 0.50 ± 0.03 % ID/g. The “Radioactivity distribution Muscle (lower limbs)” value ([2]; 60 min after administration) was 0.13 ± 0.01 % ID/g, the “Radioactivity distribution Remaining whole body” value ([2]; 60 min after administration) was 0.31 ± 0.02 % ID/g and the “Radioactivity distribution Small intestine” value ([2]; 60 min after administration) was 1.18 ± 0.18 % ID/g. The “Radioactivity distribution Spleen” value ([2]; 60 min after administration) was 0.78 ± 0.25 % ID/g, the “Radioactivity distribution Stomach” value ([2]; 60 min after administration) was 2.97 ± 0.54 % ID/g and the “Radioactivity distribution Testis” value ([2]; 60 min after administration) was 0.32 ± 0.05 % ID/g. For the same compound, the “Radioactivity distribution Whole brain” value ([2]; 60 min after administration) was 0.03 ± 0.00 % ID/g, the B2/B1 accumulation ratio [3] was 0.95 and the “B2 (PSL value, aldosterone-producing adenoma)” value ([3]; site 71b) was 2786. The “B1 (PSL value, normal adrenal cortex)” value ([3]; site 72b) was 2931.
